From PMC8009478, “Novel Curcumin-Diethyl Fumarate Hybrid as a Dualistic GSK-3β Inhibitor/Nrf2 Inducer for the Treatment of Parkinson’s Disease” (ACS Chemical Neuroscience, 2020)

What was measured:
[1] = test system: C. elegans BY250 [vtIs7 (Pdat-1:GFP)] CEP neurons; assay: 6-OHDA-induced neurodegeneration of CEP neurons in the C. elegans model of PD; assay type: in vivo, Caenorhabditis elegans; settings: cotreatment 5 μM with 6-OHDA 5 mM for 30 min, scored after 72 h
Excerpt: The nematode Caenorhabditis elegans (C. elegans) has been increasingly employed as a genetically tractable in vivo model to study the molecular mechanisms involved in several NDDs due to a short life cycle, fast reproduction, and a highly conserved inheritance (genetic basis).[35] This invertebrate model offers the opportunity to take advantage of the significant conservation of genes and metabolic pathways common to both invertebrates and humans. At the neuronal level, the adult wild-type C. elegans organism contains only eight DA neurons that repeat the features of DA neurons of mammalian, making it possible to simplify the investigations considerably. In the transgenic BY250 [vtIs7 (Pdat-1:GFP)] strain, six DA neurons in the head, namely the four sensory cephalic (CEP) and the two anterior deirid (ADE) neurons, express the green fluorescent protein (GFP) and can be clearly visualized by fluorescence microscopy analysis and thus scored over time.[36] Indeed, in this model, investigations of DA neurons degeneration in vivo are feasible through a first exposition of the nematode to PD-inducing toxin, namely 6-OHDA, followed by direct visualization of the GFP-labeled DA neurons.[37] It is thus possible to screen small molecules for their anti-PD potential, in terms of rescue of the DA neurodegeneration phenotype manifested upon neurotoxin exposure, through visualization and scoring of the alterations of CEP neuron count or neuronal morphology. […] This effect makes it possible the identification of neuroprotective agents with the ability to activate Nrf2 through the inhibition of GSK-3.[38] The curcumin-DEF hybrids 4 and 5 were investigated in the above C. elegans model for their protective effects on 6-OHDA-induced degeneration of a subclass of DA neurons. Animals were incubated with 5 μM concentration of 4 and 5, in the presence of 5 mM of 6-OHDA, for 30 min. After 72 h, the animals were studied by examining the four CEP neurons. Degenerating CEP neurons were morphologically analyzed and quantified (Figure 8). We recorded that in animals treated with 6-OHDA, 68% of CEP neurons degenerated.
Figure 8 Effects of 4 and 5 on 6-OHDA-induced neurodegeneration in C. elegans. Animals were treated with 4 or 5 (5 μM) in the presence of 6-OHDA (5 mM) for 30 min. At the end of incubation, treated animals were placed on fresh agar plates for 72 h and then visualized as described in the Materials and Methods section. (A) In nontreated vtIs7 [pdat-1::GFP] transgenic animals, dopaminergic neurons express GFP, with two of the four CEP cell bodies (white arrows) and relative dendrites (arrowheads) visible in this focal plane in the head. (B) 6-OHDA treatment causes the degeneration of CEP dendrites (empty arrowheads) and two cell bodies (gray arrows), in treated animals. The other two CEP neurons are not visible anymore. (C) Compound 5 cotreatment partially rescues the 6-OHDA-induced toxic effects, with degeneration of one of the CEP dendrites (empty arrowhead) but not the other (arrowhead) and with one CEP cell body still viable (white arrow) and one dying (gray arrow) in this focal plane. […] ADE neurons, which are less affected by 6-OHDA treatment, are also visible but were not scored (asterisks). (D) Quantification of degenerating CEP neurons. Data are expressed as percentages of degenerating neurons and reported as mean ± SEM of at least three independent experiments. […]

SH-SY5Y cells = assay: Intracellular GSH levels (MCB probe); assay type: cell-based, human; settings: 5 μM; for increase in GSH levels as compared to control: 24 h; for GSH quantity at different times: after 12 and 24 h of treatment (3–24 h studied)
Experimental: By observing the reduction of ROS levels following a long treatment of the curcumin-DEF hybrids before the treatment with t-BuOOH, we hypothesized that the antioxidant effect might likely result from an increase in levels of GSH. This endogenous antioxidant plays critical roles in protecting cells against oxidative stress damage.[32] Thus, the intracellular GSH levels were analyzed by employing the same experimental conditions used to evaluate the indirect antioxidant effect by fluorescent probe monochlorobimane (MCB). […] For the most promising compounds 4 and 5, the effect on GSH levels at different times (3–24 h) was studied.
Figure 4 Effects of compounds 4–7 and DMF on GSH levels in SH-SY5Y cells. Cells were treated with (A) compounds 4–7 (5 μM) and DMF (5 and 10 μM) for 24 h. (B) Cells were treated with compounds 4 and 5 (5 μM) for different times (3, 6, 12, and 24 h). At the end of the treatment, the GSH levels were evaluated by probe MCB. Results are expressed as mean ± SEM of at least three independent experiments (** p < 0.01 and *** p < 0.001 vs untreated cells at one-way ANOVA with the Dunnett post hoc test).
GSH levels were evaluated by using the fluorescent probe MCB, as previously described.[44]

PAMPA-BBB assay = settings: for prediction (penetration in the CNS): from PAMPA-BBB Pe; for Papp at 2.5 h: pig, PAMPA, pH 7.4
Nrf2/ARE = Nrf2/ARE binding activity, ELISA (TransAM Nrf2 Kit); assay type: cell-based, human; settings: 6 h; for Nrf2/ARE binding activity: 5 μM; for Nrf2/ARE effect compared to DMF: compounds and DMF at 5 μM
Experimental: In light of these findings, 4 and 5 emerged as the most promising to be further studied regarding their effect on the Nrf2/ARE pathway. […] The maximum ratio between nuclear and cytosolic Nrf2 levels was detected after a 3 h treatment for both compounds, while a slight reduction was observed after 6 h.
Figure 5 Effects of compounds 4 and 5 on the Nrf2/ARE signaling pathway (A and B) and NQO1 gene expression (C) in SH-SY5Y cells. (A) Cells were treated with compounds 4 and 5 (5 μM) for different times (1, 3, and 6 h). Translocation of Nrf2 from the cytosol to the nucleus was evaluated by Western blotting. Data are expressed as a ratio between nuclear Nrf2 and cytoplasmic Nrf2 levels and reported as mean ± SEM of at least three independent experiments. (B) Cells were treated with compounds 4 and 5 (5 μM) and DMF (5 μM) for 6 h. The Nrf2/ARE binding activity was determined by an ELISA assay. Results are expressed as fold increase versus untreated cells and reported as mean ± SEM of at least three independent experiments (** p < 0.01 and * p < 0.05 versus untreated cells at the t-test). (C) Cells were treated with compounds 4 and 5 (5 μM) for different times (6, 12, and 24 h). The NQO1 expression was determined by RT-PCR. Results are expressed as the relative normalized expression and reported as mean ± SEM of at least three independent experiments (*** p < 0.001 versus untreated cells at one-way ANOVA with the Dunnett post hoc test).
The levels of active Nrf2 protein were determined on the nuclear extracts (10 μg, see above) by using the DNA-binding ELISA TransAM Nrf2 Kit (Active Motif), according to the manufacturer’s guidelines. In detail, the kit comprises a primary antibody able to recognize an epitope on Nrf2 protein upon ARE binding. In the treated cells, the amount of active Nrf2 protein is expressed as a fold increase in comparison to the corresponding untreated cells.

| Papp at 2.5 h (PAMPA-BBB assay) | Nrf2/ARE binding activity (Nrf2/ARE) | Nrf2/ARE effect compared to DMF (Nrf2/ARE) | Compound | degenerating CEP neurons [1] | rescue of the 6-OHDA-induced degeneration phenotype [1] | increase in GSH levels as compared to control (SH-SY5Y cells) | GSH quantity at different times (SH-SY5Y cells) | prediction (penetration in the CNS) (PAMPA-BBB assay) |
| --- | --- | --- | --- | --- | --- | --- | --- | --- |
| 2.5 ± 0.3 ×10⁻⁶ cm/s | increase in Nrf2/ARE binding activity | superior effects to DMF | CCOC(=O)/C=C/C(C(=O)/C=C/c1ccc(OC)cc1)=C(O)\C=C\c1ccc(OC)cc1 [Compound 4, Ethyl (2E,4Z,6E)-5-Hydroxy-7-(4-methoxyphenyl)-4-((E)-3-(4-methoxyphenyl)acryloyl)hepta-2,4,6-trienoate] | 67% | no rescue | 4 fold | significant increase | CNS + (compounds showing a Pe value superior to 2.26 × 10^–6 cm s^–1 could be regarded as able to permeate the brain compartment and thus classified as (CNS +)) |
| 4.8 ± 0.4 ×10⁻⁶ cm/s | increase in Nrf2/ARE binding activity | superior effects to DMF | CCOC(=O)/C=C/C(C(=O)/C=C/c1ccc(OC)cc1)=C(O)\C=C\c1ccc(OCc2ccccc2)cc1 [Compound 5, Ethyl (2E,4Z,6E)-7-(4-(Benzyloxy)phenyl)-5-hydroxy-4-((E)-3-(4-methoxyphenyl)acryloyl)hepta-2,4,6-trienoate] | 55% | partial rescue | 4 fold | significant increase | CNS + (compounds showing a Pe value superior to 2.26 × 10^–6 cm s^–1 could be regarded as able to permeate the brain compartment and thus classified as (CNS +)) |
